Holding throughout (format): cell-based
For series [1], the target named is T1, hERG potassium channel (human Ether-à-go-go Related Gene) (Homo sapiens, UniProt Q12809).
T1 construct: gene KCNH2; wild-type hERG stably expressed in HEK 293 cells
Briefly: whole-cell patch-clamp, hERG tail current, […] °C. (In general: The patch-clamp technique gives a direct electrical read-out from membranes.)

The target of series [2] is T2, hERG potassium channel (human Ether-à-go-go Related Gene) (Homo sapiens, UniProt Q12809, S624A).
T2 construct: gene KCNH2; S624A hERG transiently expressed in HEK 293 cells
The experiment in a line: whole-cell patch-clamp, single concentration […]. The following applies: read-out: % of control tail current at 300 nM.

Series [3] has as its target T3, hERG potassium channel (human Ether-à-go-go Related Gene) (Homo sapiens, UniProt Q12809, F557L).
T3 construct: gene KCNH2; F557L hERG transiently expressed in HEK 293 cells
The experiment in a line: whole-cell patch-clamp, single concentration […]. As to conditions: read-out: % of control tail current at 300 nM.

For series [4], the target named is T4, hERG potassium channel (human Ether-à-go-go Related Gene) (Homo sapiens, UniProt Q12809, N588K).
T4 construct: gene KCNH2; N588K hERG transiently expressed in HEK 293 cells
Briefly: whole-cell patch-clamp, single concentration […]. The following applies: read-out: % of control tail current at 300 nM.

Series [5] has as its target T5, hERG potassium channel (human Ether-à-go-go Related Gene) (Homo sapiens, UniProt Q12809, T623A).
T5 construct: gene KCNH2; T623A hERG transiently expressed in HEK 293 cells
Briefly: whole-cell patch-clamp, inward tail current in […] K+, […]. The following applies: read-out: % of control tail current at 300 nM.

A word on the IC50: it is the concentration needed to halve the response being measured. Low readings indicate greater potency, high ones weaker potency. On to `Cc1ccc(C(=O)C2CCN(CCc3ccccc3)CC2)cc1` [E-4031-17], for which the IC50 in series [1] came to 0.0403 µM. In addition, the activity at 0.3 µM was found to be 57.2% in series [2], 57.9% in series [3], 43.2% in series [4] and 69.7% in series [5].
